# Source: a melting point compilation (Tetko et al.; mined from patent text by program, amines drawn as free bases though some values may be those of a salt)
row,SMILES,melting point [°C]
1,CCCCCCCCCCCCOC(=O)c1ccc(O)c(N)c1,86 to 89
2,O=C(O)c1cccc(Nc2ccc(-c3ccoc3)cc2[N+](=O)[O-])c1,203 to 205
3,CCCCCc1ccc(C(=O)Nc2ccc(-n3nc(C(F)(F)F)cc3C(F)(F)F)cc2)c(=O)o1,140 to 141
4,CC(C)(C)CC(NC(=O)c1ccc(Br)cc1)NC(=NS(=O)(=O)C(F)(F)F)Nc1cccnc1 (stereo unspecified),185 to 186
5,Cc1cccc2c(Cl)nc(Cl)nc12,180 to 230
6,Cc1cc(C)nc(OC(C)C(=O)O)n1 (stereo unspecified),117
7,CCOC(=O)Nc1ccc2c(c1)C(c1ccccc1Cl)S(=O)(=O)CCC(=O)N2 (stereo unspecified),295 to 296
8,CCc1c(O)n[nH]c1C,232 to 234
9,CC(=O)OC1C(CO)OC(NC(=O)N(CCCl)N=O)C(OC(C)=O)C1OC(C)=O (stereo unspecified),143 to 144
10,CNc1nc(-c2ccc(Br)cc2)cs1,147
11,COc1ccc(C)cc1NC(=O)Nc1ccc(N2CCN(C(=O)Nc3ccc(OCCO)cc3Cl)C(C)C2)cc1 (stereo unspecified),129 to 131
12,COc1cc(N(C)C)ccc1-c1nc2c(N[C@H]3[C@@H](C(N)=O)[C@@H]4C=C[C@H]3C4)c(Br)cnc2[nH]1,218 to 220
13,CCCCCCCCCCCCNC(=S)C1(c2ccccn2)CCCS1 (stereo unspecified),60
14,C=CCOC(=O)c1ncn2c1[C@@H]1CCCN1C(=O)c1c(Cl)cccc1-2,122 to 123
15,O=C(O)CCSCC(=O)c1cc2[nH]c(=O)[nH]c2cc1Cl,186 to 187
16,NNC(=O)C(Cl)(Cl)c1cccc(Cl)n1,198 to 200
17,CCN(C(=S)Nc1cc(Cl)ccc1C)c1c(C)nn(C)c1C,144 to 145
18,O=S=Nc1ccc(C(=O)Cl)cc1,31
19,CCc1nn(Cc2cc(=O)[nH]c(N)n2)c(CC)c1Oc1cc(Cl)cc(Cl)c1,238 to 240
20,CSC(=NC#N)NS(=O)(=O)c1cc(Cl)ccc1Cl,145
21,Cc1n[nH]c(-c2cc(Cl)ccc2N)n1,190 to 195
22,COC(=O)c1cc(I)c(OC)c2c1OCO2,162 to 164
23,CNC(=O)c1ccc(-c2ccc(NC(=O)NCc3cccnc3)cc2)nc1NCc1ccncc1,218 to 219
24,CON=C1C(C)(C)c2cc3nc(SCc4ncc(C)c(OC)c4C)[nH]c3cc2C1(C)C,110 to 112
25,CC(C)(C)c1nnc(S)n(N)c1=O,209 to 212

row,SMILES,melting point [°C]
1,CCNC(=O)c1ccc(-n2nnc(C(=O)NC3CC3)c2CSC)cc1,192
2,COc1cc(C(=O)Nc2c(C)cc3cn[nH]c3c2C(=O)NC2(C3CC3)CC2)n(-c2ncccc2Cl)n1,150 to 154
3,C=CCc1cc(C(C)=O)c(OC)cc1OCCCCC#N,40 to 42
4,N#CC1(c2nnn[nH]2)CCCC1,92 to 94
5,CCOC(=O)CNc1ccc2oc3c(OC)ccc(C(=O)Nc4c(Cl)cncc4Cl)c3c2c1,> 270
6,Cc1c(CC(C)(C)C(=O)O)n(Cc2ccc(Cl)cc2)c2ccc(OCc3ccc4ccc(Cl)cc4n3)cc12,105 to 107
7,CCC1c2c(ncn2CC)CCN1C(=S)NC(C)C (stereo unspecified),195
8,CC(C)C(C#N)NC(=O)c1snc(Cl)c1Cl (stereo unspecified),120 to 121
9,CC(CC(C)(C)O)=NO,159 to 161
10,CCOC(=O)C(=CNNc1c(Cl)cc(C(F)(F)F)cc1Cl)C(=O)OCC,86
11,CCOC(=O)c1nn(C)cc1C(F)F,30 to 31
12,CCCCCCCCOc1ccc(-c2ccc(OCC(C)OC(=O)C(C)CC)cc2)cc1 (stereo unspecified),56
13,CC(C)(C)c1cc(-c2csc(SCC(=O)O)n2)cc(C(C)(C)C)c1O,158 to 159
14,CCCCCCCCCCCCCCCC(=O)Nc1c(C)cccc1C(=O)O,106 to 113
15,"CCOC(=O)COc1c(OC)cc(Cl)c2c1CN1CCc3cc(OC)c(O)cc3C1C2 (single isomer, unassigned; (-))",132
16,CC1(C)CCC(C)(C)c2cc(-c3cc4ccc(C(=O)O)cc4s3)ccc21,297
17,COc1ccc(C(c2ccc(OC)c(O)c2)n2cncn2)cc1O,218 to 219
18,Cc1ccc(NC(=O)c2ccc(CN3CCCCC3)c(C(F)(F)F)c2)cc1-c1ccc2cnncc2c1,175 to 177
19,OCCCc1c[nH]c2ccc(-n3cnnc3)cc12,205 to 207
20,Cc1ccc(C(C)C)c2oc(SCCN3CCN(CC(=O)Nc4c(C(C)C)cccc4C(C)C)CC3)nc12,133 to 134
21,C=CCCCCCCCCCOc1ccc(-c2ccc(OCCCCCCCCCCCBr)cc2)cc1,93 to 94
22,CC1CC2=CC(=O)CCC2C2C(F)CC3(C)C(OCc4ccc(S(N)(=O)=O)cc4)CCC3C12 (stereo unspecified),232
23,CCc1c2c(nc3ccccc13)-c1cc3c(c(=O)n1C2)COC(=O)CC3(O)CC (stereo unspecified),> 280
24,CC(=O)OC(c1nccs1)(c1nccs1)C(F)(F)F,82 to 84

# Continued, values first:
row,melting point [°C],SMILES
1,126 to 128,CCCc1nn(C)c2c(Oc3ccc(F)cc3)nc(-c3ccccc3)nc12
2,172 to 173,O=C(Nc1ccc(OCCN2CCCC2=O)c2ccccc12)c1cc(F)cc(N2CCOCC2)c1
3,107 to 108,CCOC(=O)/C=C/c1nc(COc2ccc(CCl)cc2OC)c(C)o1
4,170 to 172,COc1nc2cc(Cl)c(Cl)c(C#Cc3ccccc3)c2nc1OC
5,127 to 128,CN1C(=O)C2(COc3cc4c(cc32)OCCO4)c2c(C(=O)NC3CC3)cccc21 (stereo unspecified)
6,178 to 179,CC(=O)Nc1nc(CN2CCN(C(c3ccccc3)c3ccccc3)CC2)cs1
7,137 to 138,O=C(Nc1noc2ccccc12)N1CCN(C(=O)OCc2ccccc2)CC1
8,82 to 84,Cn1cc(C(O)(c2ccc3c(cnn3C(=O)OC3CCC3)c2)C(F)(F)F)c2ccccc21 (stereo unspecified)
9,166,O=C1c2ccccc2C(=O)N1CCOc1cccc2c1SCCC2
10,68 to 70,CCOC(=O)CCc1cc(C(=O)c2cccc(C(=O)OCC)c2)ccc1O
11,137 to 139,CS(=O)(=O)Nc1ccc(C(=O)NCC23CCCN(CCC2)C3)cc1
12,109 to 111,COc1ccc(CCNC(=O)NO)cc1OC
13,103 to 105,COc1ccc(CS(=O)c2cc(OC)c(OC)c(OC)c2)cc1 (stereo unspecified)
14,155 to 157,Cn1cc(SCc2ccccc2)c(=O)c(-c2ccccc2)c1
15,161 to 164,O=c1[nH]c(NCCCOc2cccc(CN3CCCCC3)c2)ncc1[N+](=O)[O-]
16,157 to 158,CC(C)n1nc(-c2sc(NCc3ccccc3)nc2-c2ccccc2)ccc1=O
17,210 to 218,CC(C)c1ccc(S(=O)(=O)Nc2ccccc2C(=O)NCCc2ncc[nH]2)cc1
18,157 to 158,O=C(Cc1ccccc1)NC1SCCN1Cc1ccc(Cl)nc1 (stereo unspecified)
19,256 to 257,COc1ccc(-c2cc3ccc(Cl)cc3[nH]c2=O)cc1
20,139 to 141,CCCCNCc1nc(-c2ccc3c(c2)Nc2ccccc2S3)cs1
21,107 to 110,O=S(=O)(CCCCCOc1ccc(C2=C(c3ccccc3)CCCc3cc(OC4CCCCO4)ccc32)cc1)CCCC(F)(F)C(F)(F)F (stereo unspecified)
22,154 to 156,COC(=O)c1cc(N)ccc1Oc1ccccc1
23,130,CCOc1ccc2cc(N3CC(COC)OC3=O)ccc2c1 (stereo unspecified)
24,200 to 201,CCOC(=O)c1c(C)n(C)cc(-c2ccc(Cl)cc2)c1=O
25,172,CC(C)(C)OC(=O)N1CCc2c(n(CC(=O)Nc3ccccc3)c3cc(Cl)c(Cl)cc23)CC1
26,325 to 327,O=C(O)c1cccc2cc3ccc(Cl)cc3c(C(=O)O)c12

row,melting point [°C],SMILES
1,90 to 92,Fc1ccc(-c2nc(-c3ccccc3)cn2-c2ccncc2)cc1
2,105 to 107,CCCCOc1cc(CO)cc(N)c1Cc1ccccc1
3,118 to 119,O=C1CC(OCc2ccccc2)C2COC1O2 (stereo unspecified)
4,221 to 223,Cn1c(COc2ccc(CC3SC(=O)NC3=O)cc2)nc2ccc(Oc3ccc(NC(=O)c4ccc5ccccc5c4)cc3)cc21 (stereo unspecified)
5,102 to 103,COC(=O)CCC(=O)c1cccc(O)c1
6,145 to 148,O=C1C(=O)c2ccccc2C2=C1SCC1(CCN(CC(O)CC(F)(F)F)CC1)O2 (stereo unspecified)
7,119 to 121,O=Cc1ccc(-c2ccc(-c3ccccc3)s2)s1
8,79 to 80,COc1ccc(-c2cc(C=O)cc3ccoc23)cc1
9,237 to 239,CS(=O)(=O)NC1CCC(NC(=O)Nc2ccc(C(F)(F)F)cc2)CC1 (stereo unspecified)
10,147 to 148,COC(=O)c1ccc2c(OC)ccnc2c1
11,227 to 233,COc1cccc2c1OC(C(=O)Nc1ccncc1)C2CC(=O)O (stereo unspecified)
12,98 to 101,CC(C)(C)OC(=O)c1ccccc1-c1ccc(CBr)cc1
13,118 to 120,COc1ccc(C(=O)C2=C(c3ccccc3)c3ccccc3S2=O)cc1 (stereo unspecified)
14,93 to 96,CC(C)(C)c1cc2c(s1)Nc1ccccc1N=C2N1CCN[C@@H](CCc2ccccc2)C1
15,174 to 176,CCCNC1=CC(=O)C(NCCC)=C2C1=Nc1ccccc1S2(=O)=O
16,128 to 132,CCCC12COC(c3ccc(I)cc3)(OC1)SC2
17,127 to 129,Clc1c(CBr)ccc2cc(CBr)ccc12
18,238 to 239,COc1cc2c(cc1OC)[C@@H](c1ccc([N+](=O)[O-])cc1)NN(C1=NC(=O)CS1)[C@@H](C)C2
19,216 to 218,O=C1COC(=O)N1C(c1ccccc1)(c1ccccc1)c1ccccc1
20,155,CSc1nnc(SC)c2cc(-c3ccccc3)ncc12
21,208,Cc1oc2ccccc2c(=O)c1NC(=O)C(=O)O
22,145 to 147,COC(=O)c1ccc(OCC(=O)c2cc3cc(Cl)ccc3o2)cc1
23,143 to 145,O=C(NCc1ccccn1)c1cc(OCC(F)(F)F)ccc1O
24,170 to 172,CCOC(=O)c1ccc2oc3ccc(OC)cc3c(=O)c2c1
25,249,Cc1ccc2c(c1)c1cc(-c3ccc(Cl)cc3Cl)c(=O)n(C)c1n2CCCN1C(=O)c2ccccc2C1=O
26,168 to 172,Cc1cnc(CCNC(=O)c2ccccc2NC(=O)c2cccc(C(F)(F)F)c2)[nH]1
